According to the NIST ThermoML archive (doi:10.1021/je800243y):
± gives the expanded uncertainty stated by the source.

Assay: molar heat capacity at constant pressure
Conditions: 101.33 kPa, Crystal, Large sample (1 g) DSC

Row | Compound | molar heat capacity at constant pressure (298.15 K) [J/K/mol] | molar heat capacity at constant pressure (303.15 K) [J/K/mol] | molar heat capacity at constant pressure (308.15 K) [J/K/mol] | molar heat capacity at constant pressure (313.15 K) [J/K/mol] | molar heat capacity at constant pressure (318.15 K) [J/K/mol] | molar heat capacity at constant pressure (323.15 K) [J/K/mol] | molar heat capacity at constant pressure (328.15 K) [J/K/mol] | molar heat capacity at constant pressure (333.15 K) [J/K/mol] | molar heat capacity at constant pressure (338.15 K) [J/K/mol] | molar heat capacity at constant pressure (343.15 K) [J/K/mol] | molar heat capacity at constant pressure (348.15 K) [J/K/mol] | molar heat capacity at constant pressure (353.15 K) [J/K/mol] | molar heat capacity at constant pressure (358.15 K) [J/K/mol] | molar heat capacity at constant pressure (363.15 K) [J/K/mol] | molar heat capacity at constant pressure (368.15 K) [J/K/mol]
1 | O=c1[nH]c(=O)n([C@H]2C[C@H](O)[C@@H](CO)O2)cc1Br [5-bromo-2'-deoxyuridine] | 260.65 ± 5.2 | 263.37 ± 5.3 | 266.08 ± 5.3 | 268.8 ± 5.4 | 271.51 ± 5.4 | 274.23 ± 5.5 | 276.94 ± 5.5 | 279.66 ± 5.6 | 282.38 ± 5.7 | 285.09 ± 5.7 | 287.81 ± 5.8 | 290.52 ± 5.8 | 293.24 ± 5.9 | 295.95 ± 5.9 | 298.66 ± 6
2 | O=c1ccn([C@H]2C[C@H](O)[C@@H](CO)O2)c(=O)[nH]1 [2'-deoxyuridine] | 263.41 ± 5.3 | 266.16 ± 5.3 | 268.9 ± 5.4 | 271.65 ± 5.4 | 274.39 ± 5.5 | 277.14 ± 5.5 | 279.89 ± 5.6 | 282.63 ± 5.7 | 285.38 ± 5.7 | 288.12 ± 5.8 | 290.86 ± 5.8 | 293.6 ± 5.9 | 296.36 ± 5.9 | 299.1 ± 6 | 301.84 ± 6
3 | O=c1[nH]c(=O)n([C@@H]2O[C@H](CO)[C@@H](O)[C@H]2O)cc1I [2,4-dihdroxy-5-iodo-1-β-D-ribofurnosylpyrimidine] | 337.43 ± 6.8 | 338.14 ± 6.8 | 338.86 ± 6.8 | 339.57 ± 6.8 | 340.29 ± 6.8 | 341 ± 6.8 | 341.72 ± 6.8 | 342.43 ± 6.8 | 343.15 ± 6.9 | 343.86 ± 6.9 | 344.58 ± 6.9 | 345.29 ± 6.9 | 346.01 ± 6.9 | 346.72 ± 6.9 | 347.44 ± 7

Further lines, results first:

Row | molar heat capacity at constant pressure (298.15 K) [J/K/mol] | molar heat capacity at constant pressure (303.15 K) [J/K/mol] | molar heat capacity at constant pressure (308.15 K) [J/K/mol] | molar heat capacity at constant pressure (313.15 K) [J/K/mol] | molar heat capacity at constant pressure (318.15 K) [J/K/mol] | molar heat capacity at constant pressure (323.15 K) [J/K/mol] | molar heat capacity at constant pressure (328.15 K) [J/K/mol] | molar heat capacity at constant pressure (333.15 K) [J/K/mol] | molar heat capacity at constant pressure (338.15 K) [J/K/mol] | molar heat capacity at constant pressure (343.15 K) [J/K/mol] | molar heat capacity at constant pressure (348.15 K) [J/K/mol] | molar heat capacity at constant pressure (353.15 K) [J/K/mol] | molar heat capacity at constant pressure (358.15 K) [J/K/mol] | molar heat capacity at constant pressure (363.15 K) [J/K/mol] | molar heat capacity at constant pressure (368.15 K) [J/K/mol] | Compound
4 | 276.7 ± 5.5 | 278.84 ± 5.6 | 280.97 ± 5.6 | 283.12 ± 5.7 | 285.25 ± 5.7 | 287.4 ± 5.8 | 289.53 ± 5.8 | 291.68 ± 5.8 | 293.81 ± 5.9 | 295.95 ± 5.9 | 298.09 ± 6 | 300.23 ± 6 | 302.37 ± 6 | 304.51 ± 6.1 | 306.65 ± 6.1 | Cc1cn([C@H]2C[C@H](O)[C@@H](CO)O2)c(=O)[nH]c1=O [thymidine]
5 | 285.34 ± 5.7 | 287.61 ± 5.8 | 289.88 ± 5.8 | 292.15 ± 5.8 | 294.43 ± 5.9 | 296.69 ± 5.9 | 298.96 ± 6 | 301.22 ± 6 | 303.48 ± 6.1 | 305.76 ± 6.1 | 308.02 ± 6.2 | 310.3 ± 6.2 | 312.55 ± 6.2 | 314.82 ± 6.3 | 317.09 ± 6.3 | O=c1[nH]c(=O)n([C@H]2C[C@H](O)[C@@H](CO)O2)cc1I [5-iodo-2'-deoxyuridine]
6 | 305.69 ± 6.1 | 306.16 ± 6.1 | 306.64 ± 6.1 | 307.11 ± 6.1 | 307.58 ± 6.2 | 308.05 ± 6.2 | 308.52 ± 6.2 | 308.99 ± 6.2 | 309.47 ± 6.2 | 309.94 ± 6.2 | 310.41 ± 6.2 | 310.88 ± 6.2 | 311.35 ± 6.2 | 311.82 ± 6.2 | 312.29 ± 6.2 | O=c1[nH]c(=O)n([C@@H]2O[C@H](CO)[C@@H](O)[C@H]2O)cc1Br [5-bromouridine]
